According to patent publication US11174286B2, “Inhibitors of NF κ-B activity for treatment of diseases and disorders” (priority 2014, dated 2021):
Non-standard residues stand in square brackets, D forms with d. No end group written: not given here.

Legend:
p65 subunit of NF κB = assay: Western blot for p65 (NF κB) phosphorylation in SiHa cells; format: cell-based; conditions: Western blot (FIG. 4)
[1] = test system: carrageenan-induced hyperalgesia in rat paw; assay: Carrageenan-induced hyperalgesia in rat paw (modified Randell-Selitto paw withdrawal method); format: in vivo, albino rats; conditions: 3 mg carrageenan, 70 nanogram peptide
Experimental: To establish the efficacy of the disclosed peptide inhibitors of NF-κB activity in analgesia, hyperalgesia was induced in rat paws with injections of carrageenan. The experiment is as described in Example 5. Injection of carrageenan in a hind paw of rats produced severe hyperalgesia. […] Only the results with peptide SEQ ID NO:042 are shown here.
The ability of the disclosed peptides to affect nociception was determined using a modification of the Randell-Selitto paw withdrawal method. Groups (n=6) of healthy albino rats were injected in the paw with 3 mg carrageenan alone in phosphate buffered saline (PBS). […] As inflammation became obvious (15 min) in carrageenan-treated animals, test animals were injected with 70 nanogram of peptide SEQ ID NO:001, or peptide SEQ ID NO:042 in PBS. The animals are allowed to walk on a metal grid before and after injecting the drugs and the observations were noted. The scoring system was based on normal gait=1, marked limping=0.5, and three legged gait=0. The scores are transformed into percent analgesia and subjected to statistical analysis. The two peptides gave very similar results. The results shown in FIG. 10 are from animals treated with peptide SEQ ID NO:042.

[2] = test system: carrageenan-induced inflammation in rat paw; assay: Carrageenan-induced paw edema (plethysmometer); format: in vivo, albino rats
Source text: INFLAMMATORY DISEASES AND FIBROTIC DISEASES: NF-κB is a prototypical proinflammatory signaling pathway, based on the activation of NF-κB by proinflammatory cytokines such as interleukin 1 (IL-1) and tumor necrosis factor a (TNF-α), and the subsequent role of NF-κB in the expression of other proinflammatory genes including cytokines, chemokines, and adhesion molecules. Inhibition of NF-κB can be expected to result in amelioration of inflammation. This was confirmed experimentally using peptide SEQ ID NO:042 in a standard model of carrageenan-induced inflammation in rat paw. This method measures acute inflammation induced by injection of carrageenan (Sakat et al., Inflammation 37(1):1-9 (2014)) and is used extensively to study antiinflammatory properties of drugs. Carrageenan is known to activate NF-κB (Bhattacharyya et al., Mediators of Inflammation, Vol. 2013, Article ID 397642; Bhattacharyya et al., American Journal of Physiology 301(3):G475-G486 (2011); Ellis et al., Ann. Rheum. Dis. 59:303-307 (2000); Pierce et al., J. Biol. Chem. 272:21096-21103 (1997)). Example 6 and FIG. 11 show the high efficacy of peptide SEQ ID NO:042 in alleviating edema and inflammation. […] Treatment of inflammation requires the subsidence of TNF-α and NF-κB pathways, which are part of the action of the disclosed peptides.
Groups (n=6) of healthy albino rats were injected in the paw with 3 mg carrageenan alone in phosphate buffered saline (PBS). […] As inflammation became obvious (15 min) in carrageenan-treated animals, test animals were injected with 70 nanogram of peptide SEQ ID NO:001, or peptide SEQ ID NO:042 in PBS. A plethysmometer was used to measure paw edema at 0, 0.5, 1.0, 2.0, 3.0, 6.0, 12.0, and 24 hours after injections. […] In contrast, animals not receiving peptide continued to show significant inflammation at all time points.

[3] = test system: oral cancer cell line AW 13516; assay: Cell cycle analysis by flow cytometry (propidium iodide); format: cell-based
Experimental: Cell cycle analysis was performed in oral cancer cell line AW 13516 after treatment with TGF-β alone, peptide alone or in combination. Cell cycle analysis was carried out using flow cytometry (Guava Technologies) using reagent kits provided by the instrument maker. The samples were prepared after propidium iodide staining and flow cytometric analysis was performed. TGF-β causes G1 arrest in cells as expected. The disclosed peptides in contrast markedly shortened the G1 phase and prolonged the S-phase, promoting a more faithful synthesis of DNA prior to cell division. Thus, the disclosed peptides have effects which differ from the effects of growth factors.

[4] = test system: chemically induced tumor in hamster cheek; assay: DMBA-induced oral tumor in hamster buccal pouch, topical peptide gel; format: in vivo, Syrian hamsters; conditions: for histology of DMBA-treated tissue after peptide treatment: hamster cheek, FIG. 6C
Experimental: A peptide inhibitor of NF κB activity disclosed herein was tested for treatment of induced oral tumors. Male Syrian hamsters aged 8 to 10 weeks weighing between 100 and 110 g were used. The animals were fed a standard pellet diet and water ad libitum, and were maintained in accordance with applicable ethical and institutional guidelines. The animals were randomized into 10 groups of 8 animals each, and the right buccal pouches of hamsters in groups 1-5 were painted with 0.5% 7,12-dimethylbenz[a]anthracene (DMBA) in liquid paraffin three times a week for 12 weeks.
Mucoadhesive gels containing peptides were prepared by slowly adding Noveon AA1 (0.675% w/w) and Carbopol 971P NF (0.788% w/w) to purified water. The mixture was stirred at 1,025 rpm for one hour to allow full rehydration. Then 0.9% w/w glycerine, 2-phenoxyethanol, benzyl alcohol, and EDTA were added, followed by mixing at 875 rpm for one hour at room temperature. Finally, the desired peptide was added to the gel, and the gel mixed at 875 rpm for one hour to homogenize the gel (Kavitha et al., Biochimie 102:56-67 (2014); Mallery et al., Pharm Res. 24(4):728-737 (2007)).
Hamsters in Group 1 received no further treatment. For hamsters in Groups 2 and 3, peptide gel was applied topically to the right buccal pouches of the hamsters from the 12th to the 18th week daily at concentrations of 10 microgram/ml (2.35 microgram dosage of peptide per application) and 100 microgram/ml (23.5 microgram dosage of peptide per application) respectively. Another group of animals painted with liquid paraffin alone served as control. The experiment was terminated after 18 weeks and all animals were sacrificed by cervical dislocation after an overnight fast.

NF κB = NF κB luciferase reporter assay (dual luciferase) in transfected SiHa cells; format: cell-based; conditions: 24 hours of treatment
Experimental: SiHa cells (ATCC HTB-35) were seeded in the wells of a 96 well plate at 25,000 cells/well. The cells were transfected with the respective luciferase construct (p-SBE4, p-ARE-Luc in combination with FAST-1, p-NF κB) using Lipofectamine 2000 reagent (Invitrogen Technologies Inc.), as per the manufacturer's instructions. 18 hours post transfection; the cells were subjected to the respective treatments such as TGF-β, TNF-α, and the peptides. After 24 hours of treatment, the plates were removed from the incubator; medium from the cells was discarded. The wells were filled with 50 μl of PLB (passive lysis buffer) provided along with the Promega dual luciferase assay kit. The luciferase assay was performed as per the supplier's instruction manual, after transferring the lysates to a white plate for luminescence measurements. Expression of luciferase, and measurement of the resulting luminescence, thus provides a measurement of the extent of expression of NF-κB.
As per the data in FIG. 2, the disclosed peptides inhibit TNF-α-activation of NF-κB. As per the data in FIG. 3, the disclosed peptide LFAP[D]EA (SEQ ID NO:013) inhibits both TNF-α-induced and constitutive activation of NF-κB. The ratio between the firely/renilla luciferase was used to compare TNF-α induced activation of NF-κB over constitutive NF-κB activity.

smad2 [5] = assay: Phospho-Smad2 sandwich ELISA in HepG2 cells; format: cell-based; conditions: HepG2 cells (TBRII and TBRI present)
Experimental: TGF-β signaling requires both receptors.
(§1) Phosphorylation of smad2 was determined by Enzyme-Linked Immunosorbent Assay (ELISA) using a kit obtained from a commercial source. The Phospho-Smad2 Sandwich ELISA Kit is a solid phase sandwich enzyme-linked immunosorbent assay (ELISA) that recognizes endogenous levels of phospho-Smad2 (Ser465/467) and Smad3 (Ser423/425) proteins. A Smad2/3 Mouse Antibody has been coated on the microwells. After incubation with cell lysates, Smad2/3 proteins (phospho and nonphospho) are captured by the coated antibody. Following extensive washing, a Phospho-Smad2 (Ser465/467)/Smad3 (Ser423/425) Detection Antibody is added to detect captured phospho-Smad2 (Ser465/467) and phospho-Smad3 (Ser423/425) proteins. Anti-rabbit IgG, HRP-linked Antibody is then used to recognize the bound detection antibody. HRP substrate, TMB, is added to develop color. The magnitude of the absorbance for this developed color is proportional to the quantity of phospho-Smad2 (Ser465/467) and phospho-Smad3 (Ser423/425) proteins.

smad2 [6] = assay: Phospho-Smad2 sandwich ELISA in MCF-7 cells (lack functional TBRII); format: cell-based; conditions: for phosphorylation of smad2: MCF-7 cells (do not express TBRII)
Experimental: as §1

human dermal fibroblasts = assay: Gene microarray analysis of gene expression; format: cell-based; conditions: 1.0 micromolar peptide
Source text: (§2) NF κB inhibitor peptide SEQ ID NO: 010 down-regulates expression of genes known to be associated with the pathobiological action of NF κB and TNF α. […] The upregulation of certain target genes by the transcription factor NF κB is a major contributory factor in diseases and disorders attributed to the activation of NF κB. The downregulation of these genes by the NF κB inhibitor peptides can be expected to provide prophylaxis and therapy for such disorders. (The downregulation of some of these genes was confirmed in vivo in a study to examine the efficacy of NF κB inhibitor peptide, SEQ ID NO: 010.) Certain genes were also tested in a rodent squamous cell carcinoma model, by PCR and by immunoblots (mRNA levels were monitored by PCR and the corresponding protein levels were monitored by immunoblots).

[7] = In vivo study confirming gene downregulation
Source text: as §2

Compound	% CELLS IN G1 Phase [3] [%]	% CELLS IN Go Phase [3] [%]	% CELLS IN M Phase [3] [%]	% CELLS IN S Phase [3] [%]	also measured
TWAPES [SEQ ID NO:016]	–	–	–	–	inhibition of phosphorylation of the p65 subunit of NF κB (p65 subunit of NF κB): inhibition of phosphorylation
YMAPEV [SEQ ID NO:001]	–	–	–	–	nociception (hyperalgesia) [1]: markedly ameliorated nociception; paw edema pattern compared with peptide SEQ ID NO:042 ([2]; rat paw, 70 nanogram peptide, 0 to 24 hours): nearly identical patterns
LIAPEA [SEQ ID NO:061]	60.05	2.33	18.59	19.03	–
TNWAEN [SEQ ID NO:015]	–	–	–	–	inhibition of phosphorylation of the p65 subunit of NF κB (p65 subunit of NF κB): inhibition of phosphorylation
ANVAENA [SEQ ID NO:042]	62.73	2.02	19.10	16.14	histology of DMBA-treated tissue after peptide treatment [4]: an effect at the microscopic level; tumor growth in hamster cheek ([4]; topical, six weeks, 100 microgram/ml (23.5 microgram per application), after DMBA): marked inhibition of tumor growth; nociception (hyperalgesia) [1]: markedly ameliorated nociception; anti-inflammatory efficacy relative to that reported for celecoxib ([2]; compared with literature value for celecoxib): approximately 103 times; edema and inflammation at 2 h ([2]; rat paw, 3 mg carrageenan, 70 nanogram peptide, 2 h): significant decrease in edema and inflammation; inflammation by 3.0 h ([2]; rat paw, 3 mg carrageenan, 70 nanogram peptide, 3.0 h): subsided almost completely; inflammation up to 24 h post injection ([2]; rat paw, 3 mg carrageenan, 70 nanogram peptide, up to 24 h): no inflammation was noted
TWSPEL [SEQ ID NO:017]	–	–	–	–	inhibition of phosphorylation of the p65 subunit of NF κB (p65 subunit of NF κB): inhibition of phosphorylation
SEQ ID NO:057: peptide of FIG. 8B (SEQ ID NOS:041 through 069), disclosed in U.S. Pat. Nos. 5,661,127, 5,780,436 and 6,638,912; sequence not printed (LIAGEG)	52.59	14.59	11.18	21.63	–
LFAP[D]EA (LFAP[dE]A) [SEQ ID NO:013]	62.05	2.87	14.86	20.21	inhibition of constitutive activation of NF-κB (NF κB; Renilla luciferase): inhibits; inhibition of TNF-α-induced activation of NF-κB (NF κB; firefly luciferase): inhibits
LIANAK [SEQ ID NO:060]	–	–	–	–	phosphorylation of smad2 (smad2 [5]): induce phosphorylation; phosphorylation of smad2 (smad2 [6]): causing the phosphorylation of smad2
TGF-β	79.83	8.32	8.23	3.62	phosphorylation of smad2 (smad2 [5]): induce phosphorylation; phosphorylation of smad2 (smad2 [6]): do not respond
LIAP[D]EA (LIAP[dE]A) [SEQ ID NO:014]	62.69	3.19	13.52	19.78	–
LWAEAK [SEQ ID NO:008]	–	–	–	–	inhibition of phosphorylation of the p65 subunit of NF κB (p65 subunit of NF κB): inhibition of phosphorylation
NC(=O)c1ccc(-c2nc(-c3ccc4c(c3)OCO4)c(-c3ccccn3)[nH]2)cc1 [SB431542, 4-[4-(1,3-benzodioxol-5-yl)-5-(2-pyridinyl)-1H-imidazol-2-yl]benzamide, reference compound]	–	–	–	–	effect on peptide-induced smad2 phosphorylation (smad2 [6]; MCF-7 cells, with peptide LIANAK): did not prevent smad2 phosphorylation
NVAENA [SEQ ID NO:010]	–	–	–	–	histology of DMBA-treated tissue after peptide treatment [4]: histology is closer to normal histology after treatment; expression of genes associated with the pathobiological action of NF κB and TNF α (human dermal fibroblasts): down-regulates; downregulation of some of these genes in vivo [7]: confirmed
